Source: US20040005652A1 (priority 2002, published 2004)

Legend:
[1] = test system: Bacillus thuringiensis ATCC 10792; format: cell-based
[2] = test system: Bacillus cereus ATCC 14579; format: cell-based
[3] = test system: Bacillus anthrasis AMES-RIID and ANR-1; format: cell-based
B. anthrasis = conditions: cited from earlier work
B. cereus = conditions: cited from earlier work
B. thuringiensis = conditions: cited from earlier work

| Molecule | Bacillus thuringiensis ATCC 10792 Colonial Morphologies 48 hours [1] | Bacillus cereus ATCC 14579 Colonial Morphologies 48 hours [2] | Bacillus anthrasis AMES-RIID and ANR-1 Colonial Morphologies 48 hours [3] | colony colour, B. anthrasis (B. anthrasis) | colony colour, B. cereus (B. cereus) | colony colour, B. thuringiensis (B. thuringiensis) |
| --- | --- | --- | --- | --- | --- | --- |
| Manganese chloride | turquoise colonies with a narrow rim | turquoise colonies with a narrow rim | cream color colony with a blue dot in the center |  |  |  |
| O=P(O)(Oc1c[nH]c2ccc(Br)c(Cl)c12)OC1C(O)C(O)C(O)C(O)C1O (stereo not drawn) [5-bromo-4-chloro-3-indoxyl-myo-inositol-1-phosphate] |  |  |  | white colonies | turquoise colonies | turquoise colonies |
